According to patent US20180057505A1, “BICYCLIC HETEROARYL COMPOUNDS USEFUL AS INHIBITORS OF THE PAR-2 SIGNALING PATHWAY” (VERTEX PHARMACEUTICALS INCORPORATED, priority 2015, published 2018):
pIC50: −log10 of the molar value.

Columns and labels:
[1] = In vivo rat pharmacokinetics experiments
Protocol: Example 99: Protocol for Testing PAR2 Compounds In Vivo Rat Pharmacokinetics Experiments
Compounds delivered by intravenous route were formulated using a solution formulation consisting of 5% N-methylpyrrolidone 10% Vitamin E-TPGS and 85% water (v/v/) or a solution formulation consisting of 25% N-methylpyrrolidone 35% polyethylene glycol 400 and 40% water (v/v/). Intravenous formulations were administered by a bolus injection (over approximately 10 seconds) using a hypodermic needle attaches to a syringe (tail vein). The dose volume was varied from 1 to 2 mL/kg and the dose was varied from 0.5 to 1 mg/kg. Compounds delivered orally were formulated as a solution formulation consisting of 5% N-methylpyrrolidone 10% Vitamin E-TPGS and 85% water (v/v/) or as fine suspension using a cellulose derivative suspending agent with or without the addition of a wetting agent/surfactant. Milling of large particles was performed as needed to reduce particle size using focused electroacoustic milling, homogenization or low energy media milling. A spray-dried solid dispersion was prepared for key compounds using 1:1 combination with cellulose derivatives. Test compounds were administered orally by gavage using a gavage plastic needle attached to a syringe. The dose volume was varied from 5 to 10 mL/kg and the dose was varied from 1 to 600 mg/kg.
Rats were bled by venipuncture (jugular vein) and the samples were collected into tubes containing K3EDTA. The tubes were placed on wet ice until processed. The samples were centrifuged for approximately 10 minutes (at approximately 4° C.) within approximately 30 minutes of collection to prepare plasma or diluted in citrate buffer (1:3) and stored frozen (approximately −30° C.). Thawed plasma or whole blood samples were extracted by protein precipitation using an organic solvent followed by centrifugation. The supernatants were separated by high-performance liquid chromatography coupled to mass spectrometry detection. A calibration curve was prepared using reference standard compounds spiked into either blank plasma or whole blood matrices and extracted similarly to unknown samples. Pharmacokinetic parameters were calculated using non-compartmental analysis.

[2] = tested on: UTP-stimulated Ca2+ response in HT-29 cells; experiment: Ca FLIPR TETRA assay, ANTAGONIST mode, activator 0.6 μM UTP; assay type: cell-based; details: Homo sapiens; HT-29 cells, activator 0.6 μM UTP
How it was run: (§1)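 Antagonist mode, HT-29: cells O/N 37 °C, 1% FBS; calcium 5 dye 45 min 37 °C + 15 min RT; cpd (DMSO, HBSS-diluted) 30 min RT; activator at final conc. (8 μM SLIGKV / 1 U/mL thrombin / 3.1 U/mL trypsin / 0.6 μM UTP); FLIPR Tetra Ca2+ read.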

[3] = tested on: carrageenan induced paw edema; experiment: Rat carrageenan-induced paw edema model; assay type: in vivo; details: given 0.5-3 hour before carrageenan
Protocol: Example 100: In Vivo Pharmacological Evaluation of PAR2 Pathway Inhibitors Subjects and Housing and Rat Carrageenan-Induced Paw Edema Model Male Sprague Dawley rats were housed in groups in a temperature controlled room and were acclimatized in the animal facility for at least three days prior to use. Experiments were performed during the light phase of the cycle. Animals have food and water ad libitum. Peripheral inflammation was induced by intra-plantar administration of 100 ul of a 1% w/volume (in saline) carrageenan solution under isoflurane anesthesia. The degree of swelling was assessed using the plethysmometer at 2-3-4-5-6 h after carrageenan injection. Test compound or vehicle (0.5% MC/0.1% SDS) was systemically administered at the indicated doses in a volume of 5 mL/kg either 0.5-3 hour before carrageenan challenge (Table 4).

PAR2 (HT-29 cells) [4] = biological target: T1, PAR2 (HT-29 cells) (Homo sapiens, UniProt P55085); experiment: Ca FLIPR TETRA assay, ANTAGONIST mode, activator 3.1 U/mL trypsin; assay type: cell-based; details: HT-29 cells; activator 3.1 U/mL trypsin; Method A: maximal concentration of antagonist 0.1, 1 or 2 μM
T1 construct: host or cells: HT-29
T1 sequence (P55085 26-397): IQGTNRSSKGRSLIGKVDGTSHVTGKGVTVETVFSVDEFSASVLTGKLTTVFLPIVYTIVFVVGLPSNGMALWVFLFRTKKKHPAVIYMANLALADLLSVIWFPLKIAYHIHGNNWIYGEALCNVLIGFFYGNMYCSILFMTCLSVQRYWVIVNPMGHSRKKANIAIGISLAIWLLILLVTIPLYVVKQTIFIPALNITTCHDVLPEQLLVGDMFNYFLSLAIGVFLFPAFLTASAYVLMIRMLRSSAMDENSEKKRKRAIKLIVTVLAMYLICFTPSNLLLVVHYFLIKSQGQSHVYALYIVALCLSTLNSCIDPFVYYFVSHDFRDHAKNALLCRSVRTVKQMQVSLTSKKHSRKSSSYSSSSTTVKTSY
How it was run: as §1

[5] = tested on: Thrombin-stimulated Ca2+ response in HT-29 cells; experiment: Ca FLIPR TETRA assay, ANTAGONIST mode, activator 1 U/mL Thrombin; assay type: cell-based; details: Homo sapiens; HT-29 cells, activator 1 U/mL Thrombin
How it was run: as §1

PAR2 (HT-29 cells) [6] = biological target: T1, PAR2 (HT-29 cells); experiment: Ca FLIPR TETRA assay, ANTAGONIST mode, activator 8 μM SLIGKV; assay type: cell-based; details: HT-29 cells; activator 8 μM SLIGKV; Method A: maximal concentration of antagonist 0.1, 1 or 2 μM
How it was run: as §1

F ([1]; oral gavage, dose 1 to 600 mg/kg): 125% | clearance ([1]; plasma, intravenous bolus 0.5 to 1 mg/kg, non-compartmental analysis, read-out: Clp): 9.3 mL/min/kg | half-life ([1]; plasma, non-compartmental analysis, read-out: T ½ (converted)): 5.2 h | pIC50 [2]: 5.75 | pIC50 (PAR2 (HT-29 cells) [4]): 9.52 | pIC50 [5]: 5.70 | pIC50 (PAR2 (HT-29 cells) [6]): 9.70
SMILES: CC(C)(C)c1cc(-c2ccc(Cl)c(F)c2)nc2cc(C(=O)N3CCN(c4cccc(C(=O)O)n4)CC3(C)C)oc12 [Example I-448, 6-[4-[7-tert-butyl-5-(4-chloro-3-fluoro-phenyl)furo[3,2-b]pyridine-2-carbonyl]-3,3-dimethyl-piperazin-1-yl]pyridine-2-carboxylic acid]
% inhibition ([3]; dose 0.8 mg/kg): 11% | % inhibition ([3]; dose 3 mg/kg): 18% | % inhibition ([3]; dose 10 mg/kg): 30% | % inhibition ([3]; dose 20 mg/kg): 21%
